These results are taken from US20100047907A1, “METHODS OF TRANSPORTING EPITHELIAL CELL MONOLAYERS” (Absorption System Group LLC, priority 2008, published 2010).

Data set [1] is described as follows: in vitro. As to conditions: human, Caco-2, pH 7.4, Passive diffusion.
Data set [2] relates to Caco-2 cell monolayers. Briefly: Sodium butyrate supplementation of medium of Caco-2 monolayers, 7-day culture procedure, simulated transport. Type of data set: cell-based, human. The method, then: Caco-2 cells were used to assess whether cells grown using the 7-day culture procure were likely to yield intact cell monolayers following shipment. To shorten the period required for cell monolayer formation the seeding density for each Transwell® insert was increased to 240,000 cells per cm^2 (rather than 60,000 cells/cm^2). Once plated, the cells were incubated overnight at 37° C. with 0.5 mL of medium (90% Dulbecco's Modified Eagle Medium supplemented with 10% fetal bovine serum) in the apical chamber and 1.5 mL of medium in the basolateral chamber to allow for attachment to the Transwell®. Adherent cells were provided with fresh cell culture medium for the next two days. The cells were then left on a laboratory bench, at room temperature, overnight to simulate transport conditions. In order to simulate receipt of transported cells, the next day the Transwell® inserts were removed from tissue culture plates containing 0.75% agarose medium and moved to a new plate containing fresh tissue culture medium. The cell monolayers were then incubated for 3 or 6 days under normal growth conditions before they were tested for membrane integrity and permeability. […]

Data set [3] concerns the target T1, P-glycoprotein (PGP) (Homo sapiens, UniProt P08183). In words: in vitro. As to conditions: Caco-2, pH 7.4, Pgp transport.
The target in data set [4] is P-gp (PGP) (Homo sapiens, UniProt P08183). Briefly: in vitro. Conditions: Caco-2, pH 7.4, Pgp transport, Papp B->A. In general terms: Caco-2 monolayers are a common model of the intestinal barrier.
Sequence of P-gp (PGP) (P08183 whole entry): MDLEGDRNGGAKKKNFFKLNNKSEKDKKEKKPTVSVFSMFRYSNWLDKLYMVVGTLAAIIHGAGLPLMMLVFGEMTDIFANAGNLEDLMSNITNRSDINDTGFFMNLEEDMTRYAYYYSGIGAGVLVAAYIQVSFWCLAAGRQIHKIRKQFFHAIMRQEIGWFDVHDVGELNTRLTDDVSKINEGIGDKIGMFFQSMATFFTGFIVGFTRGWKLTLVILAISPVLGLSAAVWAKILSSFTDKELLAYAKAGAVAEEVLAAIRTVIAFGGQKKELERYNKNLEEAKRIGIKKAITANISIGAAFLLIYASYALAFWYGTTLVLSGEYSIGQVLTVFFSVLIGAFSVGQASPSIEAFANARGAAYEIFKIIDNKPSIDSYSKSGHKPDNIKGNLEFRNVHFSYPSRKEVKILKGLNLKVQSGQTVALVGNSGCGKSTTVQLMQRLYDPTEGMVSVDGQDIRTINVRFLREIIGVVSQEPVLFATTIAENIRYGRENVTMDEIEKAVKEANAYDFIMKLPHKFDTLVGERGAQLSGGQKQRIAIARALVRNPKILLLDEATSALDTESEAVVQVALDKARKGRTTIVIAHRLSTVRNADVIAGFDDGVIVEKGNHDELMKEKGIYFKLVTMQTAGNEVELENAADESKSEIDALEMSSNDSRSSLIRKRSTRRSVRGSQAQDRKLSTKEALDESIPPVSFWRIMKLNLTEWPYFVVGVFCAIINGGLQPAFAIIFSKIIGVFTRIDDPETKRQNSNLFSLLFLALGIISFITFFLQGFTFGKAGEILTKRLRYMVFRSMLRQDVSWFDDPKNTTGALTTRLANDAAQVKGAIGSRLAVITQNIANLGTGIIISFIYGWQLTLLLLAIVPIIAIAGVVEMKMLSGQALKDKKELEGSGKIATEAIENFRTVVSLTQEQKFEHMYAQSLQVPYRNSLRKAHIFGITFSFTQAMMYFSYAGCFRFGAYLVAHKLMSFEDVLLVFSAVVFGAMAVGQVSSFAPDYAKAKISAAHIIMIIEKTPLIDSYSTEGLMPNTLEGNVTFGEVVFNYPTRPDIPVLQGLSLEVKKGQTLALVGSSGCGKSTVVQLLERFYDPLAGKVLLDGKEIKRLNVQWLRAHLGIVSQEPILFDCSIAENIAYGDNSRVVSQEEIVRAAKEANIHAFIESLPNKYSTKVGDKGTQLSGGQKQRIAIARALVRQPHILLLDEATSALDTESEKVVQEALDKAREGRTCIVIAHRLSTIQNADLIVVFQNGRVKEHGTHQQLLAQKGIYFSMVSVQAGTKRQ
In data set [5] the target is T2, PGP (Homo sapiens, UniProt P08183). In words: in vitro. Conditions: Caco-2, pH 7.4, Pgp transport.
T2 sequence (P08183 whole entry): as above
Data set [6] relates to P-gp. In words: Bidirectional digoxin Pgp transport across MDCK monolayers. Conditions: dog, MDCK-MDR1, pH 7.4, Pgp transport.
The target of data set [7] is T1, P-glycoprotein (PGP). In words: Bidirectional digoxin Pgp transport across C2BBe1 monolayers. Conditions: Caco-2, pH 7.4.
Data set [8] deals with T2, PGP. In words: Bidirectional digoxin Pgp transport across Caco-2 monolayers. Conditions: Caco-2, pH 7.4.
Data set [9] concerns P-gp. In words: Bidirectional digoxin Pgp transport across MDR-MDCK monolayers. Conditions: human, MDCK-MDR1, pH 7.4, Pgp transport.
The test system of data set [10] is human P-glycoprotein (PGP). The description is as above. Conditions: dog, MDCK-MDR1, pH 7.4, Pgp transport; for Papp A→B at 2 h, 10 µM / Papp B→A at 2 h, 10 µM: assayed day 12.
The mark [11] stands for this setting: Table 9 control, assayed day 10.
[12] abbreviates: Table 9 shipped, 0.75% agarose media basolateral only, assayed day 10.
Setting [13] is: Table 12 control, 7 d in culture.
[14] abbreviates: Table 12 shipped overnight by air, 0.75% agarose medium basolateral only, 9 d in culture.
Where [15] appears, read: Table 10 control, assayed day 12.
Setting [16] is: Table 13 MDR1-MDCK control, 7 d in culture.
The mark [17] stands for this setting: Table 13 MDR1-MDCK shipped overnight by air, 0.75% agarose medium basolateral only, 10 d in culture.
Where [18] appears, read: air cargo shipped (three days in transit), 0.75% agarose media basolateral only, assayed day 12.
Where [19] appears, read: Table 5 control, not shipped, assayed 7 D.
[20] abbreviates: Table 6 shipped at 5 D, 0.5% agarose medium basolateral only, assayed 10 D.
[21] abbreviates: Table 7 shipped at day 6, 0.5% agarose medium basolateral only.
Where [22] appears, read: shipped, 0.5% agarose medium apical only, Table 5 lower block c1, assayed 7 D.
The mark [23] stands for this setting: shipped, 0.5% agarose medium apical only, Table 5 lower block c2, assayed 7 D.
Where [24] appears, read: shipped, 0.5% agarose medium apical only, Table 5 upper block c1, assayed 7 D.
Setting [25] is: shipped, 0.5% agarose medium apical only, Table 5 upper block c2, assayed 7 D.
Where [26] appears, read: shipped, 0.5% agarose medium apical only, Table 5 upper block c4, assayed 7 D.
Setting [27] is: shipped, 0.5% agarose medium basolateral only, assayed 7 D.

SMILES strings stand for the structures.

A word on the Papp A→B: it is the apparent permeability from the apical to the basolateral side of a cell layer. Read a high Papp A→B as ready permeation. Broadly, the Papp B→A is how fast a substance crosses the layer from the basolateral side.

T1 sequence (P08183 whole entry): as above

Consider `CC(C)NCC(O)COc1cccc2[nH]ccc12` (stereo not shown) [Pindolol, pindolol], for which, in [1], the Papp A→B at 2 h was determined as 14.2 ×10⁻⁶ cm/s.

On to `CCCC(=O)[O-].[Na+]` [sodium butyrate], for which the “effect on cell monolayer integrity and permeability following transport” value in data set [2] (4 mM in medium for three days prior to simulated transport, not following transport) was “adversely affects monolayer integrity and permeability following transport”. The “effect on cell monolayer integrity or permeability” value in [2] (added to tissue culture medium following simulated transport, not prior to transport) was “does not disrupt cell monolayer integrity or permeability”.

On to `C[C@H]1O[C@@H](O[C@H]2[C@@H](O)C[C@H](O[C@H]3[C@@H](O)C[C@H](O[C@H]4CC[C@@]5(C)[C@H](CC[C@@H]6[C@@H]5C[C@@H](O)[C@]5(C)[C@@H](C7=CC(=O)OC7)CC[C@]65O)C4)O[C@@H]3C)O[C@@H]2C)C[C@H](O)[C@@H]1O` [Digoxin, digoxin], for which the Papp B→A at 2 h, 10 µM in data set [3] came out at 6.86 ×10⁻⁶ cm/s; in data set [5] (Papp B->A) it was 15.2 ×10⁻⁶ cm/s; in [6] (setting [11]) it was 0.94 ×10⁻⁶ cm/s; in data set [6] (setting [12]) it was 3.83 ×10⁻⁶ cm/s; in [6] (setting [13]), 6.92 ×10⁻⁶ cm/s; in data set [6] (setting [14]) it was 7.44 ×10⁻⁶ cm/s. The Papp B→A at 2 h, 10 µM in data set [7] was found to be 5.67 ×10⁻⁶ cm/s; in [9] (setting [15]), 10.9 ×10⁻⁶ cm/s; in [9] (setting [16]) it was 12.6 ×10⁻⁶ cm/s; in [9] (setting [17]), 20.1 ×10⁻⁶ cm/s; in data set [9] (setting [18]), 13.1 ×10⁻⁶ cm/s; in data set [10] (Table 7 control) it was 6.37 ×10⁻⁶ cm/s. The compound further had a Papp B→A at 2 h, 10 µM in data set [10] (setting [21]) of 6.4 ×10⁻⁶ cm/s. Besides, the basolateral-to-apical permeability (Papp B→A) at 120 min, 10 µM in [4] is 21.9 ×10⁻⁶ cm/s; in data set [5] (Papp B->A) it was 21.6 ×10⁻⁶ cm/s; in [10] (setting [19]), 6.7 ×10⁻⁶ cm/s; in data set [10] (Table 6 control, assayed 10 D), 10.8 ×10⁻⁶ cm/s; in [10] (setting [20]) it was 9.14 ×10⁻⁶ cm/s; in data set [10] (setting [22]) it was 7.05 ×10⁻⁶ cm/s. For the same compound, the Papp B→A at 120 min, 10 µM was 8.27 ×10⁻⁶ cm/s in data set [10] (setting [23]); 5.24 ×10⁻⁶ cm/s in data set [10] (setting [24]); 6.19 ×10⁻⁶ cm/s in data set [10] (setting [25]); 4.65 ×10⁻⁶ cm/s in data set [10] (shipped, 0.5% agarose medium apical only, Table 5 upper block c3, assayed 7 D); 6.39 ×10⁻⁶ cm/s in data set [10] (setting [26]); 6.09 ×10⁻⁶ cm/s in data set [10] (setting [27]). In addition, the Papp A→B at 2 h, 10 µM in data set [5] (Papp A->B) turned out to be 1.13 ×10⁻⁶ cm/s; in [6] (setting [11]) it was 0.2 ×10⁻⁶ cm/s; in [6] (setting [12]) it was 0.04 ×10⁻⁶ cm/s; in data set [6] (setting [13]), 0.12 ×10⁻⁶ cm/s; in data set [6] (setting [14]), 0.16 ×10⁻⁶ cm/s; in data set [9] (setting [15]), 0.04 ×10⁻⁶ cm/s. In addition, the Papp A→B at 2 h, 10 µM in data set [9] (setting [16]) is 0.02 ×10⁻⁶ cm/s; in data set [9] (setting [17]) it was 0.09 ×10⁻⁶ cm/s; in data set [9] (setting [18]), 0.07 ×10⁻⁶ cm/s; in data set [10] (Table 7 control), 0.15 ×10⁻⁶ cm/s; in [10] (setting [21]) it was 0.09 ×10⁻⁶ cm/s. In addition, the apical-to-basolateral permeability (Papp A→B) at 120 min, 10 µM was 0.66 ×10⁻⁶ cm/s in data set [8]; 0.1 ×10⁻⁶ cm/s in data set [10] (setting [19]); 0.15 ×10⁻⁶ cm/s in data set [10] (Table 6 control, assayed 10 D); 0.21 ×10⁻⁶ cm/s in data set [10] (setting [20]); 0.18 ×10⁻⁶ cm/s in data set [10] (setting [22]); 0.09 ×10⁻⁶ cm/s in data set [10] (setting [23]). In addition, the Papp A→B at 120 min, 10 µM worked out at 0.11 ×10⁻⁶ cm/s in [10] (setting [24]), 0.06 ×10⁻⁶ cm/s in data set [10] (setting [25]), 0.07 ×10⁻⁶ cm/s in data set [10] (setting [26]) and 0.06 ×10⁻⁶ cm/s in [10] (setting [27]).
